Experiment [1] relates to Candida glabrata CG15, VT18. As to the kind of experiment: MIC against multiresistant C. glabrata. Format: cell-based. The protocol:
(§1) In this example, the efficacy of Examples 1, 10 and 13 were tested against multi-drug resistant microorganisms.
(§2) Bacterial strains tested: Pseudomonas aeruginosa AGR 18 and MR23 multiresistant. Fungal strain: Candida glabrata CG15, VT18 resistant to Amphotericin B and Voriconazole Microbiological efficacy was determined as the Minimal Inhibitory Concentration.
The bactericidal activities of Examples 1, 10 and 13 against multiresistant C. glabrata isolates are shown below in Table 18.

Experiment [2] deals with Pseudomonas aeruginosa AGR 18 and MR23 multiresistant. As to the kind of experiment: MIC against multi-drug resistant P. aeruginosa. Format: cell-based. The protocol:
as §1, §2
The bactericidal activities of Examples 1, 10 and 13 against multiresistant P. aeruginosa isolates are shown below in Table 17.

Experiment [3] deals with Vancomycin resistant S. aureus (VRSA). As to the kind of experiment: MIC by broth macrodilution against S. aureus isolates. The class given is cell-based. The note with it: Staphylococcus aureus. The protocol: In this example, the efficacy of the inventive preparations was tested against Vancomycin resistant S. aureus (VRSA)
The MICs were determined using a broth macrodilution method with cation-adjusted Mueller-Hinton broth II (Becton Dickinson) at standard inoculum (10^5 cfu/mL) following the CLSI recommendations. The cultures used in this study were bacterial clinical isolates from human infections.

For experiment [4], the system named is MSSA strain ATCC 29213. As to the kind of experiment: MIC by broth macrodilution against S. aureus isolates, MSSA strain. The class given is cell-based. The note with it: Staphylococcus aureus, read-out: MSSA strain MIC. The text has this:
The cultures used in this study were bacterial clinical isolates from human infections.

Experiment [5] has as its system A. fumigatus. The experiment in a line: MIC by broth macrodilution, Example 22. The following applies: CLSI. The class given is cell-based, Aspergillus fumigatus. The protocol: (§3) The potency of Example Nos. 1, 5 and 10 were examined against bacterial isolates from patients with cystic fibrosis. The MICs values were determined by the broth macrodilution method according to the CLSI guideline. For the in vivo studies, 8-week-old C57BL/6 mice were intranasally infected with P. aeruginosa MR-6 (2×10^7 cfu/mouse)+A. fimigatus (6×10^6 cfu/mouse).

The test system of experiment [6] is P. aeruginosa. As to the kind of experiment: MIC by broth macrodilution, isolates from patients with cystic fibrosis, Example 22. Format: cell-based. The note with it: Pseudomonas aeruginosa, CLSI, read-out: MIC against P. aeruginosa. The protocol:
as §3

Experiment [7] concerns A. fumigatus. The experiment in a line: Animal model of respiratory infection, mortality. Format: in vivo, C57BL/6 mice. The note with it: mice, intranasal infection; treatment 12 h after infection by intranasal inhalation at 32×MIC. The protocol: (§4) In this example the efficacy of the preparations were tested against an animal model of mixed respiratory infection.
as §3

Experiment [8] concerns P. aeruginosa. The experiment in a line: Animal model of respiratory infection, mortality. Format: in vivo, C57BL/6 mice. The note with it: mice, intranasal infection; treatment 12 h after infection by intranasal inhalation at 32×MIC. How it is done: as §4, §3
The subject of experiment [9] is P. aeruginosa + A. fumigatus. As to the kind of experiment: Animal model of mixed respiratory infection, mortality. Format: in vivo, C57BL/6 mice. The note with it: mice, intranasal infection; treatment 12 h after infection by intranasal inhalation at 32×MIC. How it is done:
as §4, §3

Experiment [10] relates to Ehrlich solid tumor. As to the kind of experiment: Ehrlich solid tumor, combined effect with anticancer drugs. Format: in vivo. The following applies: combination study, 0.2 ml of 0.01% solution intraperitoneally. The protocol:
In this experiment, a model of continuous Ehrlich solid tumor was used to study combined effect of claimed product with anticancer drugs. The drugs were administered simultaneously with the tumor transplantation (0.2 ml of 0.01% solution) intraperitoneally. The control animals received water (used as solvent for the drugs tested).

Where [11] appears, read: VT-A-199, read-out: VRSA strain MIC.
Where [12] appears, read: VT-V-18, read-out: VRSA strain MIC.
Setting [13] is: VT-V-25, read-out: VRSA strain MIC.

Converted amounts (≈) assume the structure as drawn. Like-named read-outs stand apart in the source and are kept apart here.

For the compound `C[C@@H]1[C@H](O)[C@@H](C)/C=C/C=C/C=C/C=C/C=C/C=C/C=C/[C@H](O[C@@H]2O[C@H](C)[C@@H](O)[C@H](N)[C@@H]2O)C[C@@H]2O[C@](O)(C[C@@H](O)C[C@@H](O)[C@H](O)CC[C@@H](O)C[C@@H](O)CC(=O)O[C@H]1C)C[C@H](O)[C@H]2C(=O)O` [AMB], the Minimal inhibitory concentration in experiment [1] (C. glabrata CG1514053) came out at 4 µg/mL (≈ 4.33 µM); in experiment [1] (C. glabrata VT18), 8 µg/mL (≈ 8.66 µM).

With `NCC[C@H](O)C(=O)N[C@@H]1C[C@H](N)[C@@H](O[C@H]2O[C@H](CN)[C@@H](O)[C@H](O)[C@H]2O)[C@H](O)[C@H]1O[C@H]1O[C@H](CO)[C@@H](O)[C@H](N)[C@H]1O` [Amikacin], the results for the minimal inhibitory concentration (MIC) in experiment [2] (P. aeruginosa strain AGR 18) and in experiment [2] (P. aeruginosa strain MR23) were 128 µg/mL (≈ 219 µM) and 256 µg/mL (≈ 437 µM), respectively.

Consider `CC1(C)S[C@@H]2[C@H](NC(=O)[C@H](N)c3ccccc3)C(=O)N2[C@H]1C(=O)O` [Ampicillin], for which the MIC in experiment [3] (setting [11]) was 16 µg/mL (≈ 45.8 µM); in [3] (setting [12]) it was 64 µg/mL (≈ 183 µM); in [3] (setting [13]), 32 µg/mL (≈ 91.6 µM); in [4] (ATCC 29213) it was 0.25 µg/mL (≈ 0.715 µM).

With `C[C@H]1[C@H](NC(=O)/C(=N\OC(C)(C)C(=O)O)c2csc(N)n2)C(=O)N1S(=O)(=O)O` [Aztreonam, aztreonam], the “MIC against A. fumigatus” value in experiment [5] is “not active”. Besides, the MIC in [6] stood at 64 µg/mL (≈ 147 µM); in experiment [2] (P. aeruginosa strain AGR 18), 32 µg/mL (≈ 73.5 µM); in experiment [2] (P. aeruginosa strain MR23), 128 µg/mL (≈ 294 µM). For the same compound, the “Percent mortality 96 h post infection, A. fumigatus” value in experiment [7] was 30%. Further, the “Percent mortality 96 h post infection, P. aeruginosa” value in experiment [8] is listed as 20%. Moreover, the “Percent mortality 96 h post infection, P. aeruginosa + A. fumigatus” value in experiment [9] is on record as 60%.

Turning to `CC(C)(O/N=C(\C(=O)N[C@@H]1C(=O)N2C(C(=O)[O-])=C(C[n+]3ccccc3)CS[C@H]12)c1csc(N)n1)C(=O)O` [Ceftazidime], the minimum inhibitory concentration (MIC) in experiment [2] (P. aeruginosa strain AGR 18) and in experiment [2] (P. aeruginosa strain MR23) was 32 µg/mL (≈ 58.5 µM) each time.

On to `N.N.[Cl][Pt][Cl]` [Cisplatin], for which the “Tumor size, 7 days after transplantation” value in [10] (7 days) is listed as 72.4 mm^3. Also, the “Tumor size, 11 days after transplantation” value in experiment [10] (11 days) turned out to be 180.7 mm^3. Also, the “Tumor size, 14 days after transplantation” value in experiment [10] (14 days) is given as 243.3 mm^3. Further, in [10] (18 days), the “Tumor size, 18 days after transplantation” value is reported as 345.8 mm^3. The “Tumor size, 22 days after transplantation” value in [10] (22 days) is reported as 548.2 mm^3. For the same compound, the “Tumor size, 25 days after transplantation” value in experiment [10] (25 days) is reported as 607.7 mm^3.

On to `CCC[C@@H]1C[C@@H](C(=O)N[C@@H]([C@H]2O[C@H](SC)[C@H](O)[C@@H](O)[C@H]2O)[C@H](C)Cl)N(C)C1` [Clindamycin], for which the minimal inhibitory concentration (MIC) in experiment [3] (setting [11]) was found to be 2 µg/mL (≈ 4.71 µM); in experiment [3] (setting [12]), 4 µg/mL (≈ 9.41 µM); in experiment [3] (setting [13]), 2 µg/mL (≈ 4.71 µM); in experiment [4] (ATCC 29213), 0.125 µg/mL (≈ 0.294 µM).

For `C[C@@H](O)[C@H]1C(=O)N2C(C(=O)O)=C(S[C@@H]3CN[C@H](C(=O)N(C)C)C3)[C@H](C)[C@H]12` [Meropenem], the MIC in experiment [3] (setting [11]) worked out at 128 µg/mL (≈ 334 µM); in experiment [3] (setting [12]), 32 µg/mL (≈ 83.4 µM); in [3] (setting [13]), 128 µg/mL (≈ 334 µM); in [4] (ATCC 29213), 0.125 µg/mL (≈ 0.326 µM).

In the case of `CCN1CCN(C(=O)N[C@@H](C(=O)N[C@@H]2C(=O)N3[C@@H]2SC(C)(C)[C@@H]3C(=O)O)c2ccccc2)C(=O)C1=O` [Piperacillin], the MIC was above 256 µg/mL in [2] (P. aeruginosa strain AGR 18) and 256 µg/mL (≈ 495 µM) in experiment [2] (P. aeruginosa strain MR23).

Regarding `NC[C@H]1O[C@H](O[C@H]2[C@H](O)[C@@H](O[C@H]3O[C@H](CO)[C@@H](O)[C@H](N)[C@H]3O)[C@H](N)C[C@@H]2N)[C@H](N)C[C@@H]1O` [Tobramycin, tobramycin], the “MIC against A. fumigatus” value in experiment [5] was “not active”. In addition, the MIC in [6] is 16 to 32 µg/mL (≈ 34.2 to 68.4 µM); in [2] (P. aeruginosa strain AGR 18), 32 µg/mL (≈ 68.4 µM); in experiment [2] (P. aeruginosa strain MR23), 32 µg/mL (≈ 68.4 µM). Further, the “Percent mortality 96 h post infection, A. fumigatus” value in experiment [7] is listed as 40%. The “Percent mortality 96 h post infection, P. aeruginosa” value in experiment [8] was 20%. Besides, the “Percent mortality 96 h post infection, P. aeruginosa + A. fumigatus” value in experiment [9] amounted to 50%.

`C[C@@H](c1ncncc1F)[C@](O)(Cn1cncn1)c1ccc(F)cc1F` [VRZ]: the figures for the Minimal inhibitory concentration in experiment [1] (C. glabrata CG1514053) and in experiment [1] (C. glabrata VT18) were 8 µg/mL (≈ 22.9 µM) and 4 µg/mL (≈ 11.5 µM), respectively.

`CN[C@H](CC(C)C)C(=O)N[C@H]1C(=O)N[C@@H](CC(N)=O)C(=O)N[C@H]2C(=O)N[C@H]3C(=O)N[C@H](C(=O)N[C@H](C(=O)O)c4cc(O)cc(O)c4-c4cc3ccc4O)[C@H](O)c3ccc(c(Cl)c3)Oc3cc2cc(c3O[C@@H]2O[C@H](CO)[C@@H](O)[C@H](O)[C@H]2O[C@H]2C[C@](C)(N)[C@H](O)[C@H](C)O2)Oc2ccc(cc2Cl)[C@H]1O` [Vancomycin]: the minimal inhibitory concentration (MIC) in [3] (read-out: VRSA strain MIC, VT-A-199) worked out at 16 µg/mL (≈ 11 µM); in experiment [3] (read-out: VRSA strain MIC, VT-V-18), 16 µg/mL (≈ 11 µM); in [3] (read-out: VRSA strain MIC, VT-V-25), 1 µg/mL (≈ 0.69 µM); in [4] it was 0.5 µg/mL (≈ 0.345 µM).

What is called MIC is the smallest concentration in the dilution series that meets the test's criterion for growth inhibition.

The record behind these values is patent US11285170B2, “Fractionated antimicrobial compositions and use thereof” (priority 2017, dated 2022).
